# Assay results as given in ChEMBL document CHEMBL4393680, “Design, synthesis and biological evaluation of novel thioquinazolinone-based 2-aminobenzamide derivatives as potent histone deacetylase (HDAC) inhibitors” (Eur J Med Chem, 2019).
# Activity calls are given as the source filed them. The calls are words filed in the database; no cut-off is given here.
# Assays:
# SMMC-7721 [1] = assay: Induction of apoptosis in human SMMC7721 cells assessed as necrotic cells at 4 uM incubated for 48 hrs by Annexin-V-FITC/propidium iodide staining based flow cytometry (Rvb=1.88%); type: functional
# HCT-116 [2] = assay: Antiproliferative activity against human HCT116 cells assessed as reduction in cell growth at 2 uM incubated for 72 hrs by CCK-8 assay relative to control; type: functional; conditions: HCT-116, 72 h
# SMMC-7721 [3] = assay: Cell cycle arrest in human SMMC7721 cells assessed as accumulation at S phase at 4 uM incubated for 48 hrs by propidium iodide staining based flow cytometry (Rvb=6.83%); type: functional
# SMMC-7721 [4] = assay: Induction of apoptosis in human SMMC7721 cells assessed as late apoptotic cells at 4 uM incubated for 48 hrs by Annexin-V-FITC/propidium iodide staining based flow cytometry (Rvb=1.73%); type: functional
# SMMC-7721 [5] = assay: Induction of apoptosis in human SMMC7721 cells assessed as early apoptotic cells at 1 uM incubated for 48 hrs by Annexin-V-FITC/propidium iodide staining based flow cytometry (Rvb=2.88%); type: functional
# SMMC-7721 [6] = assay: Cell cycle arrest in human SMMC7721 cells assessed as accumulation at G0/G1 phase at 4 uM incubated for 48 hrs by propidium iodide staining based flow cytometry (Rvb=77%); type: functional
# [7] = molecular target: T1, Protein deacetylase HDAC6 (Homo sapiens, UniProt Q9UBN7); assay: Inhibition of human recombinant His-tagged HDAC6 expressed in baculovirus infected insect cells using FLUOR DE LYS SIRT1 as substrate preincubated for 10 mins followed by substrate addition and measured after 30 mins by fluorescence method
# T1 sequence (Q9UBN7 whole entry): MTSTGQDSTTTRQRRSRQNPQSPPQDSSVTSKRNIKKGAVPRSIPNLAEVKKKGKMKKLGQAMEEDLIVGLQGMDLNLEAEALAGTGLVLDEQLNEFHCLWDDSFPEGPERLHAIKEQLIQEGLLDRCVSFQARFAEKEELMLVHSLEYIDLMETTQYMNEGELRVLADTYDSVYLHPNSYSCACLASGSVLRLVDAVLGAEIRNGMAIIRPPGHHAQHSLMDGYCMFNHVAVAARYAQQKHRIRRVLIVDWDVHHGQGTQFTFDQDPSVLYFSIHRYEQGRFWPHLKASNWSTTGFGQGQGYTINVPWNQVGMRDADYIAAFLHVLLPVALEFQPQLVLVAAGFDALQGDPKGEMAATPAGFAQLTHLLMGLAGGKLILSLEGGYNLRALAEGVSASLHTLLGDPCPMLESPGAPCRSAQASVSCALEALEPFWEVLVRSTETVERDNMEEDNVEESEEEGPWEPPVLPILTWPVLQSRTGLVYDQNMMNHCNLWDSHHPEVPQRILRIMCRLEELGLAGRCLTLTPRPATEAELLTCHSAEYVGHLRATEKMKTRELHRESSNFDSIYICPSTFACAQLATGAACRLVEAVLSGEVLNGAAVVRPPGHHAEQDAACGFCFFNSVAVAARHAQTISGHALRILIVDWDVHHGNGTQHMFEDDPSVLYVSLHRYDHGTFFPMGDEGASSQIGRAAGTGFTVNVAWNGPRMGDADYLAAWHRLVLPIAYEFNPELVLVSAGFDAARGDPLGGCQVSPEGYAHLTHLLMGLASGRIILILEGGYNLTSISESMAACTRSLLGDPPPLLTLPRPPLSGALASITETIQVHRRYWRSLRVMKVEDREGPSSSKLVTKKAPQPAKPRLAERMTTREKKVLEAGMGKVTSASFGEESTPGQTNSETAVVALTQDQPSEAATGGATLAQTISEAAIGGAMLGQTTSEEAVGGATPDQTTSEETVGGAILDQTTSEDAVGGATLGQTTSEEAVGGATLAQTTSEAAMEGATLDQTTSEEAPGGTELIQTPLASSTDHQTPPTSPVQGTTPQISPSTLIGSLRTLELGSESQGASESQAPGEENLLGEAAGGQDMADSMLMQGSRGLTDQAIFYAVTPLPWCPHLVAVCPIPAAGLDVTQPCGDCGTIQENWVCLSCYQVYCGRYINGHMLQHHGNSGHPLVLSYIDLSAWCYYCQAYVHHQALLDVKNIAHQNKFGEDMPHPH
# Histone deacetylase 2 [8] = molecular target: T2, Histone deacetylase 2 (Homo sapiens, UniProt Q92769); assay: Inhibition of HDAC2 in human SMMC7721 cells assessed as increase in H3K9 acetylation at 1uM incubated for 48 hrs by DAPI staining based confocal fluorescence microscopy; type: cell-based
# SMMC-7721 [9] = assay: Antiproliferative activity against human SMMC7721 cells assessed as reduction in cell growth at 8 uM incubated for 72 hrs by CCK-8 assay relative to control; type: functional; conditions: SMMC-7721, 72 h
# SMMC-7721 [10] = assay: Cell cycle arrest in human SMMC7721 cells assessed as accumulation at S phase at 0.25 uM incubated for 48 hrs by propidium iodide staining based flow cytometry (Rvb=6.83%); type: functional
# Histone deacetylase 2 [11] = molecular target: T2, Histone deacetylase 2; assay: Inhibition of human recombinant His-tagged HDAC2 ([…]) expressed in baculovirus infected insect cells using FLUOR DE LYS Green as substrate preincubated for 10 mins followed by substrate addition and measured after 30 mins by fluorescence method
# HCT-116 [12] = assay: Antiproliferative activity against human HCT116 cells assessed as reduction in cell growth at 8 uM incubated for 72 hrs by CCK-8 assay relative to control; type: functional; conditions: HCT-116, 72 h
# SMMC-7721 [13] = assay: Cell cycle arrest in human SMMC7721 cells assessed as accumulation at S phase at 1 uM incubated for 48 hrs by propidium iodide staining based flow cytometry (Rvb=6.83%); type: functional
# SMMC-7721 [14] = assay: Antiproliferative activity against human SMMC7721 cells assessed as reduction in cell growth incubated for 72 hrs by CCK-8 assay; type: functional, cell-based; conditions: SMMC-7721, 72 h
# SMMC-7721 [15] = assay: Induction of apoptosis in human SMMC7721 cells incubated for 48 hrs by Annexin-V-FITC/propidium iodide staining based flow cytometry; type: functional, cell-based
# SMMC-7721 [16] = assay: Cell cycle arrest in human SMMC7721 cells assessed as accumulation at G0/G1 phase at 0.25 uM incubated for 48 hrs by propidium iodide staining based flow cytometry (Rvb=77%); type: functional
# SMMC-7721 [17] = assay: Induction of apoptosis in human SMMC7721 cells assessed as late apoptotic cells at 1 uM incubated for 48 hrs by Annexin-V-FITC/propidium iodide staining based flow cytometry (Rvb=1.73%); type: functional
# SMMC-7721 [18] = assay: Antiproliferative activity against human SMMC7721 cells assessed as reduction in cell growth at 2 uM incubated for 72 hrs by CCK-8 assay relative to control; type: functional; conditions: SMMC-7721, 72 h
# SMMC-7721 [19] = assay: Induction of apoptosis in human SMMC7721 cells assessed as necrotic cells at 0.25 uM incubated for 48 hrs by Annexin-V-FITC/propidium iodide staining based flow cytometry (Rvb=1.88%); type: functional
# HeLa = assay: Antiproliferative activity against human HeLa cells assessed as reduction in cell growth incubated for 72 hrs by CCK-8 assay; type: functional, cell-based
# SMMC-7721 [20] = assay: Induction of apoptosis in human SMMC7721 cells assessed as necrotic cells at 1 uM incubated for 48 hrs by Annexin-V-FITC/propidium iodide staining based flow cytometry (Rvb=1.88%); type: functional
# SMMC-7721 [21] = assay: Induction of apoptosis in human SMMC7721 cells assessed as early apoptotic cells at 4 uM incubated for 48 hrs by Annexin-V-FITC/propidium iodide staining based flow cytometry (Rvb=2.88%); type: functional
# T2 sequence (Q92769 whole entry): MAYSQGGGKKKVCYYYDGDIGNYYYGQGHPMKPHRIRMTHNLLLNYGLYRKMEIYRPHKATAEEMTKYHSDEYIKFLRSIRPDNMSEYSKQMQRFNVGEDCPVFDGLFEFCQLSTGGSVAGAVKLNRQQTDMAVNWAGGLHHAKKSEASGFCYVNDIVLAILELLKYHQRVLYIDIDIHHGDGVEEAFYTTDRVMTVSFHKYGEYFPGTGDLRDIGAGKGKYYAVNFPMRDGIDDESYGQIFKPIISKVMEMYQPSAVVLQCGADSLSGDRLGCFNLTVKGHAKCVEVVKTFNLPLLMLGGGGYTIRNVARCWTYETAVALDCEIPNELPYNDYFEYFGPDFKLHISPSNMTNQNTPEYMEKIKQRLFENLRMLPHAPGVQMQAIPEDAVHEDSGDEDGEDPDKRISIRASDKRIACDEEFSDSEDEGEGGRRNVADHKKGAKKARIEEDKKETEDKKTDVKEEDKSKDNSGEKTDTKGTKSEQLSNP
smiles,measurement,setting,value
CCn1c(SCc2ccc(/C=C/C(=O)Nc3ccccc3N)cc2)nc2cc(OC)ccc2c1=O,Activity,SMMC-7721 [1],10%
same,inhibition at 2 µM,HCT-116 [2],67.3%
same,Activity,SMMC-7721 [3],28.7%
same,Activity,SMMC-7721 [4],38.2%
same,Activity,SMMC-7721 [5],16.4%
same,Activity,SMMC-7721 [6],53.62%
same,IC50,[7],> 40000 nM
same,inhibition,Histone deacetylase 2 [8],Active
same,inhibition at 8 µM,SMMC-7721 [9],79.7%
same,Activity,SMMC-7721 [10],20.75%
same,IC50,Histone deacetylase 2 [11],180 nM
same,inhibition at 8 µM,HCT-116 [12],80.5%
same,Activity,SMMC-7721 [13],16.13%
same,IC50,SMMC-7721 [14],60 nM
same,Activity,SMMC-7721 [15],Dose-dependent effect
same,Activity,SMMC-7721 [16],61.58%
same,Activity,SMMC-7721 [17],28.8%
same,inhibition at 2 µM,SMMC-7721 [18],56.8%
same,Activity,SMMC-7721 [19],4.51%
same,IC50,HeLa,3410 nM
same,Activity,SMMC-7721 [20],8.91%
same,Activity,SMMC-7721 [21],10.5%
Cn1c(SCc2ccc(C(=O)Nc3ccccc3N)cc2)nc2cc(Br)ccc2c1=O,Activity,SMMC-7721 [1],15.1%
same,inhibition at 2 µM,HCT-116 [2],72.4%
same,Activity,SMMC-7721 [3],24.16%
same,Activity,SMMC-7721 [4],51.4%
same,Activity,SMMC-7721 [5],3.12%
same,Activity,SMMC-7721 [6],56.05%
same,IC50,[7],> 40000 nM
same,inhibition,Histone deacetylase 2 [8],Active
same,inhibition at 8 µM,SMMC-7721 [9],70.6%
same,Activity,SMMC-7721 [10],15.53%
same,IC50,Histone deacetylase 2 [11],530 nM
same,inhibition at 8 µM,HCT-116 [12],88.4%
same,Activity,SMMC-7721 [13],18.28%
same,IC50,SMMC-7721 [14],5580 nM
same,Activity,SMMC-7721 [15],Dose-dependent effect
same,Activity,SMMC-7721 [16],65.59%
same,Activity,SMMC-7721 [17],33.8%
same,inhibition at 2 µM,SMMC-7721 [18],35.6%
same,Activity,SMMC-7721 [19],4.73%
same,IC50,HeLa,3970 nM
same,Activity,SMMC-7721 [20],13.6%
same,Activity,SMMC-7721 [21],6.61%
COc1ccc2c(=O)n(-c3ccccc3Cl)c(SCc3ccc(C(=O)Nc4ccccc4N)cc3)nc2c1,Activity,SMMC-7721 [1],8.28%
same,inhibition at 2 µM,HCT-116 [2],43.7%
same,Activity,SMMC-7721 [3],45.18%
same,Activity,SMMC-7721 [4],20.4%
same,Activity,SMMC-7721 [5],7.67%
same,Activity,SMMC-7721 [6],27.52%
same,IC50,[7],> 40000 nM
same,inhibition,Histone deacetylase 2 [8],Active
same,inhibition at 8 µM,SMMC-7721 [9],84.1%
same,Activity,SMMC-7721 [10],19.96%
same,IC50,Histone deacetylase 2 [11],610 nM
same,inhibition at 8 µM,HCT-116 [12],83.3%
same,Activity,SMMC-7721 [13],28.44%
same,IC50,SMMC-7721 [14],2160 nM
same,Activity,SMMC-7721 [15],Dose-dependent effect
same,Activity,SMMC-7721 [16],48.75%
same,Activity,SMMC-7721 [17],19.1%
same,inhibition at 2 µM,SMMC-7721 [18],50.4%
same,Activity,SMMC-7721 [19],2.7%
same,IC50,HeLa,1320 nM
same,Activity,SMMC-7721 [20],7.63%
same,Activity,SMMC-7721 [21],5.54%
COc1ccc2c(=O)n(C)c(SCc3ccc(C(=O)Nc4ccccc4N)cc3)nc2c1,Activity,SMMC-7721 [1],10.6%
same,inhibition at 2 µM,HCT-116 [2],73.1%
same,Activity,SMMC-7721 [3],22.52%
same,Activity,SMMC-7721 [4],54.8%
same,Activity,SMMC-7721 [5],11.6%
same,Activity,SMMC-7721 [6],46.09%
same,IC50,[7],> 40000 nM
same,inhibition,Histone deacetylase 2 [8],Active
same,inhibition at 8 µM,SMMC-7721 [9],79.3%
same,Activity,SMMC-7721 [10],22.23%
same,IC50,Histone deacetylase 2 [11],160 nM
same,inhibition at 8 µM,HCT-116 [12],91.8%
same,Activity,SMMC-7721 [13],19.34%
same,IC50,SMMC-7721 [14],30 nM
same,Activity,SMMC-7721 [15],Dose-dependent effect
same,Activity,SMMC-7721 [16],67.11%
same,Activity,SMMC-7721 [17],45.4%
same,inhibition at 2 µM,SMMC-7721 [18],68.8%
same,Activity,SMMC-7721 [19],5.77%
same,IC50,HeLa,1490 nM
same,Activity,SMMC-7721 [20],10.8%
same,Activity,SMMC-7721 [21],13%
